According to patent US12122780B2, “Pyrimidinyl group-containing tricyclic compound serving as c-Met inhibitor” (JIANGSU AOSAIKANG PHARMACEUTICAL CO., LTD., priority 2019, dated 2024):
Structures can show the parent of a compound that is named as a salt.

Columns and labels:
[1] = system: human lung cancer EBC-1 xenograft tumor; test: In vivo drug efficacy, human lung cancer EBC-1 xenograft tumor in nude mice; parameters: species or system BALB/c nude mice; conditions: for Tumor volume: n = 6; for TGI (tumor growth inhibition rate) / TRTV/CRTV (relative tumor proliferation rate T/C): 25th day
Method: BALB/c nude mice, female, 6-8 weeks old, weighing about 18-20 grams, animals were raised in SPF-class animal rooms in IVC (independent air supply system, constant temperature and humidity) cages (3 per cage). All cages, bedding and water were disinfected before use. All animals had free access to standard certified commercial laboratory diets. A total of 36 mice purchased from Shanghai Lingchang Biotechnology Co., Ltd. were used for research. Each animal was inoculated with 0.1 mL (5×10^6 cells) of EBC-1 cells on the right back, when the average tumor volume reached 243 mm^3, the animals were randomly grouped and the administration was started. The test compound was orally administered daily, the dose of hydrochloride of compound 24 was 10 mg/kg, the two doses of hydrochloride of compound 25 were 10 mg/kg and 20 mg/kg, respectively, and the dose of hydrochloride of compound 29 was 10 mg/kg. The tumor diameter was measured with vernier calipers twice a week. The calculation formula of tumor volume was: V=0.5a×b^2, a and b represented the long diameter and short diameter of the tumor, respectively. The anti-tumor efficacy of the compound was evaluated by TGI (%) or the relative tumor proliferation rate T/C (%). Relative tumor proliferation rate T/C (%)=TRTV/CRTV×100% (TRTV: average RTV in the treatment group; CRTV: average RTV in the negative control group). The relative tumor volume (RTV) was calculated according to the results of tumor measurement, the calculation formula was RTV=Vt/V0, wherein V0 was the tumor volume measured at the time of the grouping administration (i.e. D0), Vt was the tumor volume at a certain measurement, and TRTV and CRTV were taken on the same day. TGI (%) reflected the tumor growth inhibition rate. TGI (%)=[(1−(average tumor volume of a certain treatment group after administration-average tumor volume of the treatment group at the beginning of administration))/(average tumor volume of the solvent control group after the administration-average tumor volume of the solvent control group at the beginning of the administration)]×100%. Statistical analysis was performed based on RTV data at the end of the experiment, and SPSS software was used for analysis.

Hs746T cells = test: Hs746T cell proliferation experiment (CellTiter-Glo); assay type: cell-based; conditions: Homo sapiens, 96 h, 4 days
Method: DMEM medium was purchased from Gibco, and fetal bovine serum was purchased from Hyclone. Hs746T cell line was purchased from ATCC. Envision multi-label analyzer (PerkinElmer).
Hs746T cells were seeded in a 384-well plate, 50 μL of cell suspension per well, which contained 1500 Hs746T cells. The cell plate was placed in a carbon dioxide incubator for overnight culture.
The compounds to be tested were 3-fold diluted into 9 concentrations with Tecan, double-duplicate well experiment was set, and the final compound concentrations added to the 384-well cell plate were 1000 nM to 0.15 nM. The cell plate was cultured in a carbon dioxide incubator for 4 days.
After 4 days, 25 μL of Promega CellTiter-Glo reagent was added to each well of this cell plate, and incubated at room temperature for 10 minutes to stabilize the luminescence signal. Readings were taken using a PerkinElmer Envision multi-label analyzer.
The action curves of the compounds were automatically fitted using Xlfit software and the values of IC50 were calculated, High control was the values of DMSO-treated wells and Low control was the values of cell-free medium wells.

EBC-1 cells = test: EBC-1 cell proliferation experiment (CellTiter-Glo); assay type: cell-based, human; conditions: Homo sapiens, EBC-1, 72 h, 3 days
Method: MEM medium, fetal bovine serum, penicillin/streptomycin antibiotics were purchased from Wisent. EBC-1 cell line was purchased from Nanjing COBIO Bioscience Co., LTD. Envision multi-label analyzer (PerkinElmer).
EBC-1 cells were seeded in a white 96-well plate, […] cell suspension per well, which contained 3000 EBC-1 cells. The cell plate was placed in a carbon dioxide incubator for overnight culture.
The compound to be tested was diluted 5-fold to the eighth concentration with a discharge gun, i.e., from 2 mM to […], and double duplicate wells experiment was set. 78 μL of the medium was added to the middle plate, then 2 μL per well of gradient diluted compound was transferred to the corresponding position on the middle plate, then mixed well and 20 μL per well was transferred to the cell plate. The cell plate was cultured in a carbon dioxide incubator for 3 days. Another cell plate was prepared and the signal values were read on the day of dosing as […] to be used in the data analysis. 25 μL of Promega CellTiter-Glo was added to each well of this cell plate, and incubated at room temperature for 10 minutes to stabilize the luminescence signal. Readings were taken using a PerkinElmer Envision multi-label analyzer.
25 μL of Promega CellTiter-Glo reagent was added to each well of this cell plate, and incubated at room temperature for 10 minutes to stabilize the luminescence signal. Readings were taken using a PerkinElmer Envision multi-label analyzer.
Using the equation (Sample-Min)/(Max-Min)*100% to convert the original data to the inhibition rate, the IC50 value can be obtained by curve fitting with four parameters (obtained by “log(inhibitor) vs. response in GraphPad Prism—Variable slope mode).

CC(C)N1CCC(COc2cnc(-c3cccc(Cn4c(=O)ccn5c6cc(C#N)ccc6nc45)c3)nc2)CC1 [Hydrochloride of compound 25]
Tumor volume ([1]; 10 mg/kg oral daily (stopped after 15 days), day 18, mean ± standard error): 34 ± 4 mm^3
Tumor volume ([1]; 10 mg/kg oral daily (stopped after 15 days), day 21, mean ± standard error): 44 ± 6 mm^3
Tumor volume ([1]; 10 mg/kg oral daily (stopped after 15 days), day 25, mean ± standard error): 83 ± 11 mm^3
Tumor volume ([1]; 10 mg/kg oral daily (stopped after 15 days), day 25, mean ± standard error, listed as hydrochloride of compound 25): 83 mm^3
Tumor volume ([1]; 10 mg/kg oral daily (stopped after 15 days), day 27, mean ± standard error): 120 ± 25 mm^3
TGI (tumor growth inhibition rate) ([1]; 10 mg/kg oral daily): 108.9%
TRTV/CRTV (relative tumor proliferation rate T/C) ([1]; 10 mg/kg oral daily): 4.3%
Tumor volume ([1]; 10 mg/kg oral daily, day 0, mean ± standard error): 243 ± 21 mm^3
Tumor volume ([1]; 10 mg/kg oral daily, day 4, mean ± standard error): 247 ± 20 mm^3
Tumor volume ([1]; 10 mg/kg oral daily, day 7, mean ± standard error): 162 ± 13 mm^3
Tumor volume ([1]; 10 mg/kg oral daily, day 11, mean ± standard error): 67 ± 9 mm^3
Tumor volume ([1]; 10 mg/kg oral daily, day 14, mean ± standard error): 46 ± 5 mm^3
Tumor volume ([1]; 20 mg/kg oral daily (stopped after 15 days), day 18, mean ± standard error): 4 ± 0 mm^3
Tumor volume ([1]; 20 mg/kg oral daily (stopped after 15 days), day 21, mean ± standard error): 4 ± 0 mm^3
Tumor volume ([1]; 20 mg/kg oral daily (stopped after 15 days), day 25, mean ± standard error): 4 ± 0 mm^3
Tumor volume ([1]; 20 mg/kg oral daily (stopped after 15 days), day 25, mean ± standard error, listed as hydrochloride of compound 25): 4 mm^3
Tumor volume ([1]; 20 mg/kg oral daily (stopped after 15 days), day 27, mean ± standard error): 2 ± 1 mm^3
TGI (tumor growth inhibition rate) ([1]; 20 mg/kg oral daily): 113.4%
TRTV/CRTV (relative tumor proliferation rate T/C) ([1]; 20 mg/kg oral daily): 0.2%
Tumor volume ([1]; 20 mg/kg oral daily, day 0, mean ± standard error): 244 ± 22 mm^3
Tumor volume ([1]; 20 mg/kg oral daily, day 4, mean ± standard error): 174 ± 12 mm^3
Tumor volume ([1]; 20 mg/kg oral daily, day 7, mean ± standard error): 100 ± 8 mm^3
Tumor volume ([1]; 20 mg/kg oral daily, day 11, mean ± standard error): 32 ± 3 mm^3
Tumor volume ([1]; 20 mg/kg oral daily, day 14, mean ± standard error): 12 ± 3 mm^3
IC50 (Hs746T cells): 2.2 nM
IC50 (EBC-1 cells): 1.87 nM

CC(C)(O)CN1CCC(COc2cnc(-c3cccc(Cn4c(=O)ccn5c6cc(C#N)ccc6nc45)c3)nc2)CC1 [Hydrochloride of compound 39]
IC50 (Hs746T cells): 1.5 nM
IC50 (EBC-1 cells): 4.81 nM
